Consider two compounds from patent publication US8258169B2, “Pyrazole-4-N-alkoxycarboxamides as microbiocides” (Syngenta Crop Protection, LLC, priority 2008, dated 2012).

Usually melting point stands for the temperature of the solid-liquid transition. Compound `CCON(C(=O)c1cn(C)nc1C(F)F)C(C)Cc1c(Cl)cc(Cl)cc1Cl` (centres unmarked) [Compound 1.032, 3-difluoromethyl-1-methyl-1H-pyrazole-4-carboxylic acid ethoxy-[1-methyl-2-(2,4,6-trichlorophenyl)-ethyl]-amide] had a melting point of 111 to 114 °C.

Regarding `CON(CCCc1c(Cl)cc(Cl)cc1Cl)C(=O)c1cn(C)nc1C(F)F` [Compound 2.040, 3-difluoromethyl-1-methyl-1H-pyrazole-4-carboxylic acid methoxy-[3-(2,4,6-trichloro-phenyl)-propyl]-amide], the melting point lay within 95 to 96 °C.
